The record followed here is patent US9918983B2, “Suicidal LSD1 inhibitors targeting SOX2-expressing cancer cells” (THE BOARD OF REGENTS OF THE NEVADA SYSTEM OF HIGHER …, priority 2013, dated 2018).

For assay [1], the target named is T1, LSD1-protein A complex (Mus musculus, UniProt Q6ZQ88).
T1 construct: recombinant and endogenous LSD1 complexes isolated from F9 cells; endogenous in cells; host or cells: F9 mouse teratocarcinoma cells, anti-LSD1 immunoprecipitate on protein A-Sepharose
Put plainly: In vitro demethylation assay, immunoaffinity-purified LSD1-protein A complex from F9 cells. It counts as biochemical. As to conditions: dimethylated H3K4 peptide; 50 μM CBB1007 or 2 μM MS-275.
Source text: (§1) The immunocomplexes were captured by protein A-Sepharose. Isolated LSD1-protein A or HDAC1-protein A complexes were verified by Western blotting with LSD1 and HDAC1 antibodies.

Assay [2] has as its target T2, recombinant LSD1 (GST-LSD1) (Homo sapiens, UniProt O60341).
T2 construct: Human LSD1 and HDAC1 full-length cDNAs were obtained from Open Biosystems; GST (N, cleaved yes); made in house; host or cells: Escherichia coli BL21
Briefly: In vitro demethylation assay, recombinant LSD1, H3K4me2 peptide. As to conditions: dimethylated H3K4 peptide; 50 μM CBB1007 or 2 μM MS-275. It counts as biochemical. The source says: H3K4me2 and H4K16ac were purchased from AnaSpec and Shanghai Science Peptide Biological Technology Co., Ltd., respectively. Human LSD1 and HDAC1 full-length cDNAs were obtained from Open Biosystems. Human CoREST cDNA was amplified by reverse transcription-PCR (RT-PCR) using mRNA isolated from HeLa cells. These cDNAs were fully sequenced and cloned into the pGEX-KG or pET28a vector and expressed as the glutathione S-transferase (GST)- or His-tagged fusion proteins in the Escherichia coli BL21 strain and affinity purified with glutathione or Ni-Sepharose (GE Healthcare, United Kingdom) resin. […]
For a typical deacetylation assay, 1 μg rHDAC1 or 1 μg immunoprecipitated endogenous HDAC1-protein A complexes (from two 10-cm dishes) was incubated with 0.4 μg H4K16ac peptide in the presence or absence of 50 μM CBB1007 or 2 μM MS-275 at 30° C. for 1 h. The percentages of deacetylated products were analyzed by mass spectrometry, and the data were analyzed by GraphPad Prism (version 5) software. The reaction products were analyzed by mass spectrometry to separate the peptide substrate (H4K16ac) and the product (H4K16), as previously described (Wang, J., et al. (2011) Cancer Research 71, 7238-7249). […]

Assay [3] has as its target T3, recombinant HDAC1 (GST-HDAC1) (Homo sapiens, UniProt Q13547).
T3 construct: Human LSD1 and HDAC1 full-length cDNAs were obtained from Open Biosystems; GST (N, cleaved yes); made in house; host or cells: Escherichia coli BL21
Briefly: In vitro deacetylation assay, recombinant HDAC1, H4K16ac peptide. It counts as biochemical. Particulars: LSD1 and HDAC1 without CoREST.
Source text: Human LSD1 and HDAC1 full-length cDNAs were obtained from Open Biosystems. […] These cDNAs were fully sequenced and cloned into the pGEX-KG or pET28a vector and expressed as the glutathione S-transferase (GST)- or His-tagged fusion proteins in the Escherichia coli BL21 strain and affinity purified with glutathione or Ni-Sepharose (GE Healthcare, United Kingdom) resin. […] The GST tag and uncut GST-HDAC1/GST-LSD1 proteins were depleted by glutathione-Sepharose. For the reconstitution reaction, recombinant GST-CoREST, His-LSD1, and recombinant HDAC1 (rHDAC1) (GST was removed by the use of PreScission protease) (10 μg) were assembled into the LSD1-CoREST-HDAC1 complex and then pulled down by GSTSepharose resins. Protein A-Sepharose was used as a negative-control resin.

Assay [4] relates to PA-1 cells. Briefly: Cell growth/viability (MTT, microscopy). It counts as cell-based, human. As to conditions: PA-1 cells, 50 μM, 30 hours. Here is the method:
Lung, breast, ovarian, and other carcinoma cells were either obtained from American Type Culture Collection (ATCC) or from the DTP and DCTD Tumor Repository of National Cancer Institute (the NCI-60 cancer cell line panel), operated by Charles River Laboratory, Inc., as listed in Table 1. They were cultured according to instructions and treated with various concentrations of LSD1 inhibitors for 30-36 hours for mRNA analysis by quantitative real time RT-PCR or for 30-48 hours for protein analysis and the cell viability assays using Western blotting or microscopy and MTT assays as described previously (Wang, J., et al. (2011) Cancer Research 71, 7238-7249).
Alternatively, cell viability assays were conducted as previously described (Wang, J., et al. (2011) Cancer Research 71, 7238-7249). For the MTT assay, cells were seeded onto 96-well culture plates with a density of 2000-5000 cells/well, and incubated with CBB1003 or CBB1007 at various concentrations from 1 to 100 μM for 30-48 hours, depending cell growth rate. Dimethylsulfoxide (DMSO) was used as a solvent control. MTT was added to a final concentration of 0.5 mg/mL and cells were re-incubated for 4 hours. After removing the medium, 200 μL DMSO was added to dissolve formazan, followed by incubation for 10 minutes, and absorbance was measured at 490 nm by a Bio Red microplate reader. All assays were performed in triplicates for each concentration. The cell viability rate was calculated as the relative percentage of MTT absorption as follows: % cell viability=(mean experimental absorbance/mean control absorbance)×100.
Table 8 below lists activity of CBB3001 (compound 10) in Sox2-negative (ES-2) and Sox2-expressing (PA-1 and T47D) cancer cells determined in a cell-based assay as described herein (see also FIG. 3A-C).

Assay [5] concerns the target T4, LSD1-CoREST-HDAC1 complex (Homo sapiens, UniProt O60341+Q13547).
T4 construct: Human LSD1 and HDAC1 full-length cDNAs were obtained from Open Biosystems; GST (N, cleaved yes); made in house; host or cells: Escherichia coli BL21
Briefly: Reconstituted LSD1-CoREST-HDAC1 complex on oligonucleosomes. It counts as biochemical. As to conditions: 50 μM CBB1007 or 2 μM MS-275.
Procedure: For the reconstitution reaction, recombinant GST-CoREST, His-LSD1, and recombinant HDAC1 (rHDAC1) (GST was removed by the use of PreScission protease) (10 μg) were assembled into the LSD1-CoREST-HDAC1 complex and then pulled down by GSTSepharose resins. Protein A-Sepharose was used as a negative-control resin.
Briefly, cells (1×10^6) were washed twice with ice-cold hypotonic buffer (20 mM potassium-HEPES, pH 7.8, 5 mM potassium acetate, 0.5 mM MgCl2, 0.5 mM DTT), swelled, and disrupted with 25 strokes in a Dounce homogenizer using a tightfitting pestle. Nuclei were pelleted at 4,000 rpm for 5 min and resuspended in buffer A (20 mM HEPES, pH 7.9, 1.5 mM magnesium acetate, 50 mM potassium acetate, 10% glycerol, 0.5 mM DTT, 150 mM NaCl, protease and phosphatase inhibitors). […] The chromatin pellet was resuspended in 0.5 mL buffer B (0.32 M sucrose, 50 mM Tris-HCl, pH 7.5, 4 mM MgCl2, 1 mM CaCl2, 0.1 mM phenylmethylsulfonyl fluoride) and incubated with 30 units of micrococcal nuclease for 10 min at 37° C. The digested samples were centrifuged at 8,000×g for 10 min, and the supernatant, which contained oligonucleosomes, was recovered.
The reaction products (demethylated or deacetylated histones) were analyzed by Western blotting.

For assay [6], the target named is T5, HDAC1-protein A complex (Mus musculus, UniProt O09106).
T5 construct: 1 μg immunoprecipitated endogenous HDAC1-protein A complexes; endogenous in cells; host or cells: F9 mouse teratocarcinoma cells, anti-HDAC1 immunoprecipitate on protein A-Sepharose
Briefly: In vitro deacetylation assay, immunoaffinity-purified HDAC1-protein A complex from F9 cells. It counts as biochemical. Particulars: H4K16ac peptide; 50 μM CBB1007 or 2 μM MS-275.
Source text: as §1

The structures appear in SMILES notation.

T3 sequence (Q13547 whole entry): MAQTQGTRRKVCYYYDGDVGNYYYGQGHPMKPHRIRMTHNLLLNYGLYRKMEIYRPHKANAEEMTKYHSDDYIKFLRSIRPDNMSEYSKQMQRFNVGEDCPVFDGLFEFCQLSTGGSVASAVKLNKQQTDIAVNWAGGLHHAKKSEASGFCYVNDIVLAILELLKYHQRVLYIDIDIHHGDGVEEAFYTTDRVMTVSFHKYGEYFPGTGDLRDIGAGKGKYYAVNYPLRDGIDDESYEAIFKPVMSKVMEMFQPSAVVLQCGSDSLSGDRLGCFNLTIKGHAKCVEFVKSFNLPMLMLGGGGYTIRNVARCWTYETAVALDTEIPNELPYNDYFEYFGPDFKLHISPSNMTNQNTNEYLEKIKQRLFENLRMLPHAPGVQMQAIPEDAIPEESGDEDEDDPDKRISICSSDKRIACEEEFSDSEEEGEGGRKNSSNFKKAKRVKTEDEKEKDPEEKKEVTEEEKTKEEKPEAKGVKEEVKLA

For the compound `COC(=O)c1cc(CN2CCN(C(=N)N)CC2)cc(C(=O)N2CCN(C(=O)c3ccc(C(=N)N)cc3)CC2)c1` [CBB1007], the “demethylation activity of immunoaffinity-purified LSD1 (LSD1-protein A)” value in assay [1] was “sensitive”. The “demethylation activity of GST-LSD1” value in assay [2] is reported as “sensitive”. Moreover, the “HDAC1 activity in the absence of CoREST” value in assay [3] is recorded as “not inhibited”. The cell growth result in assay [4] was “sensitive”. For the same compound, in assay [5], the “HDAC1 deacetylase activity in the reconstituted complex” value was “partial inhibition of the HDAC1 deacetylase activity” and the “LSD1 demethylase activity in the reconstituted complex” value is recorded as “inhibited the activity of LSD1 demethylase”. Besides, the “deacetylase activity of immunoaffinity-purified HDAC1 (HDAC1-protein A)” value in assay [6] is “sufficient to inhibit the deacetylase activity”.
